Laboratory results taken from US20250302080A1, “SWEETNESS AND/OR FLAVOR ENHANCER” (AJINOMOTO CO., INC., priority 2022, published 2025).

Experiments:
[1] = Sensory evaluation of sweetness intensity in RebA solution (Experimental Example 12); conditions: added alone, 3.0 points or more
Description: A negative control RebA solution (0.073 wt % […] solution) was prepared by dissolving RebA in filtered water.
A sensory evaluation of sweetness intensity was performed for each sample by a panel of three experts according to the following evaluation criteria.
Sweetness intensity was evaluated by 0.0 to 10.0 points based on the following reference samples (negative control (hereinafter referred to as NC) (0.0 point); reference 1 (hereinafter referred to as R1) (5.0 points); reference 2 (hereinafter referred to as R2) (10.0 points)). The average score (rounded to two decimal places) of each expert panelist was calculated. An average score of 3.0 points or more was considered to be functional. • NC (0.0 point): 0.073 wt % RebA solution (solvent: filtered water) • R1 (5.0 points): 0.077 wt % RebA solution (solvent: filtered water) • R2 (10.0 points): 0.080 wt % RebA solution (solvent: filtered water)

[2] = Sensory evaluation of sweetness intensity in black tea au lait (Experimental Example 15); conditions: added alone; for concentration at which a sweetness-enhancing effect was confirmed: 3.0 points or more
Description: (§1) Instant black tea au lait powder (product name: Blendy (registered trademark) Stick Black Tea Au Lait (Ajinomoto AGF, Inc.)) was prepared according to the instructions, and then diluted 1.2 times with filtered water to prepare negative control black tea au lait.
(§2) When the carbohydrate content of Blendy (registered trademark) Stick Black Tea Au Lait is calculated as the total sucrose content, the negative control black tea au lait contains 5.2 g of sucrose per 100 g.
(§3) A sensory evaluation of sweetness intensity and black tea au lait flavor intensity was performed for each sample by a panel of three experts according to the following evaluation criteria.
(§4) Sweetness intensity and black tea au lait flavor intensity were each evaluated by 0.0 to 10.0 point based on the following reference samples (negative control (hereinafter referred to as NC) (0.0 point); reference 1 (hereinafter referred to as R1) (5.0 points); reference 2 (hereinafter referred to as R2) (10.0 points)). The average score (rounded to two decimal places) of each expert panelist was calculated. An average score of 3.0 points or more was considered to be functional. • NC (0.0 point): black tea au lait (product name: Black Tea Au Lait, Ajinomoto AGF, Inc.) prepared according to the instructions, and then diluted 1.2 times with filtered water (i.e., negative control black tea au lait). • R1 (5.0 points): with 0.26 g of sugar added per 99.74 g of NC. • R2 (10.0 points): with 0.52 g of sugar added per 99.48 g of NC.

[3] = Sensory evaluation of sweetness intensity in yogurt drink (Experimental Example 14); conditions: added alone, 3.0 points or more
Description: Yogurt drink (product name: 7 Premium Yogurt Drink, SEVEN-ELEVEN JAPAN CO., LTD.) was diluted 1.2 times with filtered water to prepare negative control yogurt drink.
When the carbohydrate content of 7 Premium Yogurt Drink is calculated as the total sucrose content, the negative control yogurt drink contains 10.75 g of sucrose per 100 g.
A sensory evaluation of sweetness intensity and yogurt flavor intensity was performed for each sample by a panel of three experts according to the following evaluation criteria.
Sweetness intensity and yogurt flavor intensity were each evaluated by 0.0 to 10.0 point based on the following reference samples (negative control (hereinafter referred to as NC) (0.0 point); reference 1 (hereinafter referred to as R1) (5.0 points); reference 2 (hereinafter referred to as R2) (10.0 points)). The average score (rounded to two decimal places) of each expert panelist was calculated. An average score of 3.0 points or more was considered to be functional. • NC (0.0 point): yogurt drink (product name: 7 Premium Yogurt Drink, SEVEN-ELEVEN JAPAN CO., LTD.) diluted 1.2 times with filtered water. • R1 (5.0 points): with 0.54 g of sucrose added per 99.46 g of NC. • R2 (10.0 points): with 1.08 g of sucrose added per 98.92 g of NC.

[4] = Sensory evaluation of sweetness intensity in RebM solution (Experimental Examples 20-21); conditions: added alone, 3.0 points or more
Description: A negative control RebM solution (0.063 wt % RebM solution) was prepared by dissolving RebM in filtered water.
A sensory evaluation of sweetness intensity was performed for each sample by a panel of four experts according to the following evaluation criteria.
Sweetness intensity was evaluated by 0.0 to 10.0 points based on the following reference samples (negative control (hereinafter referred to as NC) (0.0 point); reference 1 (hereinafter referred to as R1) (3.0 points), reference 2 (hereinafter referred to as R2) (5.0 points); reference 3 (hereinafter referred to as R3) (10.0 points)). The average score (rounded to two decimal places) of each expert panelist was calculated. An average score of 3.0 points or more was considered to be functional. • NC (0.0 point): 0.063 wt % RebM solution (solvent: filtered water) • R1 (3.0 points): 0.063 wt % RebM solution (solvent: filtered water)+dodecanoic acid (1 ppb) • R2 (5.0 points): 0.066 wt % RebM solution (solvent: filtered water) • R3 (10.0 points): 0.069 wt % RebM solution (solvent: filtered water)
A sensory evaluation of sweetness intensity was performed for each sample by a panel of four experts according to the same evaluation criteria as in Experimental Example 20.

[5] = Sensory evaluation of cafe au lait flavor intensity in sucrose-containing cafe au lait (Experimental Example 16); conditions: added alone, 3.0 points or more
Description: Negative control cafe au lait was prepared by the same method as in Experimental Example 6.
A sensory evaluation of the presence or absence of cafe au lait flavor intensity enhancement was performed for each sample by a panel of four experts according to the following evaluation criteria.
Cafe au lait flavor intensity was evaluated by 0.0 to 10.0 point based on the following reference samples (negative control (hereinafter referred to as NC) (0.0 point); reference 1 (hereinafter referred to as R1) (5.0 points); reference 2 (hereinafter referred to as R2) (10.0 points)). The average score (rounded to two decimal places) of each expert panelist was calculated. An average score of 3.0 points or more was considered to be functional. • NC (0.0 point): cafe au lait prepared by mixing starting materials at the blending rate in Table 6 in Experimental Example 6 (i.e., negative control cafe au lait). • R1 (5.0 points): drink with 0.15 g of sucrose added per 99.85 g of NC. • R2 (10.0 points): drink with 0.3 g of sucrose added per 99.70 g of NC.

[6] = Sensory evaluation of black tea au lait flavor intensity (Experimental Example 15); conditions: added alone; for black tea au lait flavor-enhancing effect (in words): 0.0001-1000 ppb
Description: as §1, §2, §3, §4

| SMILES | concentration at which a sweetness-enhancing effect was confirmed [1] [ppb] | concentration at which a sweetness-enhancing effect was confirmed [2] [ppb] | concentration at which a sweetness-enhancing effect was confirmed [3] [ppb] | concentration at which a sweetness-enhancing effect was confirmed [4] [ppb] | concentration at which a cafe au lait flavor-enhancing effect was confirmed [5] [ppb] | black tea au lait flavor-enhancing effect (in words) [6] | concentration at which a black tea au lait flavor-enhancing effect was confirmed ([6]; 3.0 points or more) [ppb] | sweetness-enhancing effect (in words) ([2]; 0.0001-1000 ppb) |
| --- | --- | --- | --- | --- | --- | --- | --- | --- |
| CC1=C(O)C(=O)CC1 [cyclotene] | 10 | ≥ 1 | ≥ 0.01 | 10 | ≥ 0.1 | concentration-dependent black tea au lait flavor-enhancing effect | – | – |
| CC(C)CCC(=O)O [4-methylpentanoic acid] | 100 | ≥ 100 | ≥ 1 | 100 | ≥ 1 | – | ≥ 1 | – |
| CCCCCCCCCC(=O)O [decanoic acid] | 10 | – | ≥ 0.1 | 10 | ≥ 0.01 | concentration-dependent black tea au lait flavor-enhancing effect | – | concentration-dependent sweetness-enhancing effect |
